From patent US4929602A, “Method of inhibiting platelet dependent arterial thrombosis” (Scripps Clinic and Research Foundation, priority 1988, dated 1990)

Key:
Hemostatic Function = test system: Hemostatic Function; set-up: species or system baboon; conditions: in vivo
Experimental: After continuous infusion of a | given dose for 15 minutes (min.), the template bleeding time measurement | was begun and blood was drawn for thrombin time determinations. Escalatio | to the next dose was undertaken only after the bleeding time measurement | had been completed. The results are expressed as means ± one standard | deviation.

[1] = Template bleeding time and platelet count in carotid endarterectomy study (Example 2B); format: in vivo, baboon; conditions: treated animals, day 3
Experimental: […] The mean platelet count was 318±70×10^3 /μl in the control group and 296±53×10^3 /μl in the treated group.
Bleeding time measurements were performed in duplicate on the shaved volar surface of the forearm, using the standard template method as previously described for studies in baboons. Harker et al., Blood, 58:824-834 (1980).

[2] = Plasma levels of PPACK (antithrombin activity) in carotid endarterectomy study; format: in vivo, baboon; conditions: iv
[3] = Blood and plasma determinations during dialyzer exposure (APTT, FPA, fibrinogen, cell counts, bleeding time, PF4, βTG, C3a); format: in vivo, baboon
Experimental: PPACK or standard heparin (from porcine intestinal mucosal, Invenex Laboratories, Chagrin Falls, Ohio) was infused into the arterial limb of the vascular shunt immediately proximal to the dialyzer.
Blood cell counts (platelets, white blood cells, and red blood cells) were performed on disodium EDTA anticoagulated whole blood using a J. T. Baker whole blood analyzer Model 810 (Allentown, Pa.). Hanson et al., J. Clin. Invest. 75:1591-99 (1985); and Hanson et al., Arteriosclerosis, 5:595-603 (1985). Standard template bleeding times, were performed on the shave volar surface of the forearm in a manner as described in Harker et al., New. Eng. J. Med., 287:155-59 (1972) and Malpass et al., Blood, 57:736-40 (1981). Bleeding times were done in duplicate and averaged. Commercially available radioimmunometric assays were carried out to measure plasma levels of platelet factor 4 (PF4) (Abbott Laboratories, North Chicago, Ill.), β-thromboglobulin (βTG) (Amersham Corporation, Arlington Heights, Ill.), fibrinopeptide A (FPA) (MICRO USA Inc., New York, N.Y.) and activated complement C3 antigen (C3a) (Amersham Corp.). Blood samples for these plasma assays were collected, processed and determined as described in the procedures of Example 1 and in Malpass et al., ibid. and Hanson et al., Arterosclerosis, 5:595-603 (1985). […] (APTT) were performed using a standard method (Activated PTT reagent, Ortho Diagnostics, Raritain, N.J.). A fibrometer (Fibrosystem, Division of Becton and Dickinson and Co., Cockeysville, […].) was used for endpoint clot detection as described in Biggs, R., Human Blood Coagulation, Haemostasis and Thrombosis, Oxford, Blackwell Scientific, pages 657-750 (1976). Fibrinogen was determined by a total clottable protein method described by Jacobsson K., Scand. J. Clin. Lab. Invest., 7(Suppl. 14):9-54 (1955).

[4] = Plasma activity levels of heparin (anti-Xa) and PPACK (antithrombin) during dialyzer study; format: in vivo, baboon; conditions: for level at 0.5 h / level at 1 h: plasma, 100 nmol/kg per min, Plasma PPACK; for level at 0.5 h: 30 min; for level at 1 h: 60 min
Experimental: Samples were centrifuged (2000×g, for 5 min) immediately after collection and the recovered plasma was frozen until assay. […] In some studies PPACK levels were determined at three sites: (i) systemic (ii) immediately proximal to the dialyzer but distal to the site of the PPACK infusion, and (iii) immediately distal to the dialyzer. Levels of heparin activity were determined by measuring the potentiating effect of heparin of plasma anti-Xa activity using a synthetic chromogenic substrate (Stachrom Heparin, Stago, France). Teien et al., Thrombo Research, 10:399-410 (1977).

[5] = PPACK concentration in the plasma during infusion (graft study); format: in vivo, baboon; conditions: intravenous infusion at 100 nmol/kg/min (about 15 minutes)
Description: Methods for determining the concentration of a Formula (1) peptide in the plasma are well known in the art, a preferred method being that described by Collen et al., J. Lab. Clin. Med., 99:76-83 (1982), whose disclosures are incorporated herein by reference.

[6] = Collen et al., cited from earlier work
[7] = test system: primate model of vascular graft thrombosis; conditions: aspirin 32.5 mg/kg/day orally 2 hours prior to graft placement; previous studies; cited from earlier work

Q: Which results are given for `N=C(N)NCCC[C@H](NC(=O)[C@@H]1CCCN1C(=O)[C@H](N)Cc1ccccc1)C(=O)CCl` [PPACK, D-phenylalanyl-L-propyl-L-arginyl-chloromethyl ketone]?
A: effect on heart rate or blood pressure (Hemostatic Function): No effect; platelet count (Hemostatic Function): 269 ± 54 × 10^9 /L; Platelet counts [1]: 296±53 ×10^3 /μl; level at 1.5 h ([2]; 100 nmol/kg/min, 90 min after infusion): 1120 ± 270 ng/mL; level at 0.5 h ([2]; 30 min after infusion, 100 nmol/kg/min for about 1 hour): 3720 ± 610 ng/mL; platelet count ([3]; during dialyzer exposure): 401 ± 17 × 10^3 /μL; C3a peak level ([3]; during dialyzer use): 1989 ± 360 ng/mL; white blood cell count, early fall ([3]; during dialyzer use): 5,900±810 cells/ul; PPACK systemic plasma level ([4]; 100 nmol/kg per min infused proximal to the dialyzer): 1.5 ± 0.06 µg/mL; level at 0.5 h ([4]; Postdialyzer): 3900 ± 500 ng/mL; level at 1 h ([4]; Postdialyzer): 4100 ± 1200 ng/mL; level at 0.5 h ([4]; Predialyzer): 3050 ± 550 ng/mL; level at 1 h ([4]; Predialyzer): 3650 ± 650 ng/mL; level at 0.5 h ([4]; Systemic): 1400 ± 400 ng/mL; level at 1 h ([4]; Systemic): 1600 ± 500 ng/mL; PPACK concentration in the plasma [5]: 1 to 2 µg/mL; T50 removal rate from the circulation [6]: less than 3 min; half-life of PPACK's ability to inhibit fibrin formation ([6]; rabbits): about 2.9 minutes

Q: With `CC(=O)Oc1ccccc1C(=O)O` [aspirin] as the compound, how does the “effect on vascular graft 111In-platelet deposition” value [7] read?
A: neither aspirin (32.5 mg/kg/day given orally 2 hours prior to graft placement) not aspirin combined with heparin (100 units/kg) affected
